Data on 14 compounds can be found in patent US10611740B2, “Aryl dihydro-2H-benzo[b][1,4]oxazine sulfonamide and related compounds for use as agonists of RORγ and the treatment of disease” (Lycera Corporation, priority 2015, dated 2020).

A value given as a limit tells only on which side of the number the result lay.

This test deals with T1, RORγ-LBD (Homo sapiens, UniProt P51449).
T1 construct: made in house; host or cells: SF9 cells (baculovirus)
T1 sequence (P51449 269-508 limits assumed): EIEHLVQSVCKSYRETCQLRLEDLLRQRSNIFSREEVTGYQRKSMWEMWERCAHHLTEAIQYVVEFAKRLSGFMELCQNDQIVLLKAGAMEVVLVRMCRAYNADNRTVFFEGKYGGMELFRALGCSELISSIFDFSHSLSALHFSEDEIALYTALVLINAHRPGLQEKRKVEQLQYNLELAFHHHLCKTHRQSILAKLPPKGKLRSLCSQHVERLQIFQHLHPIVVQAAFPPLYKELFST
Description: RORγ-Ligand Binding Domain (LBD) TR-FRET Assay.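 For TR-FRET Assay Max Response: 665/615 nm ratio relative to signal without ursolic acid or compound set at 100.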 It counts as biochemical. The procedure: Assay procedures and results are described below.
HIS-tagged RORγ-LBD protein was expressed in SF9 cells using a baculovirus expression system. The lysate was diluted in assay buffer (50 mM Tris pH 7.0, 50 mM KCl, 1 mM EDTA, 0.1 mM DTT, 0.01% BSA) to obtain RORγ-LBD final concentration of ˜3 nM in a 384-well assay plate (need to titrate for each batch of protein).
A stock of biotinylated-LXXLL peptide from coactivator SRC1 (Biotin-[…]) was prepared in assay buffer and added to each well (200 nM final concentration). […] RORγ antagonist ursolic acid was also included at a final concentration of 2 μM. Compounds were diluted in DMSO and further diluted in assay buffer with a final DMSO concentration at 1%.
For orientation: In TR-FRET formats the signal depends on donor and acceptor labels being close together.
In general, EC50 refers to the midpoint of the concentration-response curve. A high value points to a need for much substance. For the compound `Cn1cc(C(=O)NC[C@H]2CN(S(=O)(=O)c3cccc(C(F)(F)F)c3)c3cc(-c4cc(F)cc(OC(F)F)c4)ccc3O2)c(C(F)(F)F)n1` [Compound 30CZ, (S)-N-((6-(3-(difluoromethoxy)-5-fluorophenyl)-4-((3-(trifluoro-methyl)phenyl)sulfonyl)-3,4-dihydro-2H-benzo[b][1,4]-oxazin-2-yl)methyl)-1-methyl-3-(trifluoromethyl)-1H-pyrazole-4-carboxamide], the EC50 is < 0.5 µM and the “TR-FRET Assay Max Response” value is “*** (The symbol “***” indicates a value in the range of greater than 150 to 200)”.
For `CC(C)(C(=O)NC[C@H]1CN(S(=O)(=O)c2cccc(C(F)(F)F)c2)c2cc(-c3cccc(F)c3Cl)ccc2O1)C(F)(F)F` [Compound 30BJ, (S)-N-((6-(2-chloro-3-fluoro-phenyl)-4-((3-(trifluoromethyl)-phenyl)sulfonyl)-3,4-dihydro-2H-benzo[b][1,4]oxazin-2-yl)methyl)-3,3,3-trifluoro-2,2-dimethylpropanamide], the EC50 fell in the range of 0.5 to 5 µM and the “TR-FRET Assay Max Response” value is “*** (The symbol “***” indicates a value in the range of greater than 150 to 200)”.
For the compound `CC(C)(C[C@H]1CN(S(=O)(=O)c2cccc(C(F)(F)F)c2)c2cc(-c3cccc(OC(F)F)n3)ccc2O1)C(=O)O` [Compound 32AM, (S)-3-(6-(6-(difluoromethoxy)-pyridin-2-yl)-4-((3-(trifluoro-methyl)phenyl)sulfonyl)-3,4-dihydro-2H-benzo[b][1,4]oxazin-2-yl)-2,2-dimethylpropanoic acid], the EC50 was < 0.5 µM and the “TR-FRET Assay Max Response” value was “* (The symbol “*” indicates a value in the range of 25 to 90)”.
On to `C[C@H](C[C@H]1CN(S(=O)(=O)c2cccc(C(F)(F)F)c2)c2cc(-c3cc(F)cc(OC(F)F)c3)ccc2O1)C(=O)O` [Compound 46O, (R)-3-((S)-6-(3-(difluoro-methoxy)-5-fluorophenyl)-4-((3-(trifluoromethyl)phenyl)sulfonyl)-3,4-dihydro-2H-benzo[b][1,4]-oxazin-2-yl)-2-methylpropanoic acid], for which the half-maximal effective concentration (EC50) is < 0.5 µM and the “TR-FRET Assay Max Response” value is reported as “*** (The symbol “***” indicates a value in the range of greater than 150 to 200)”.
Take `CC(C)(C[C@H]1CN(S(=O)(=O)c2cccc(C(F)(F)F)c2)c2cc(-c3c(F)cccc3C(F)(F)F)ccc2O1)C(=O)O` [Compound 32AY, (S)-3-(6-(2-fluoro-6-(trifluoro-methyl)phenyl)-4-((3-(trifluoro-methyl)phenyl)sulfonyl)-3,4-dihydro-2H-benzo[b][1,4]oxazin-2-yl)-2,2-dimethylpropanoic acid]: the EC50 was < 0.5 µM and the “TR-FRET Assay Max Response” value was “** (The symbol “**” indicates a value in the range of greater than 90 to 150)”.
The matching figures for `C[C@@H](C[C@H]1CN(S(=O)(=O)c2cccc(C(F)(F)F)c2)c2cc(-c3cc(Cl)cc(OC(F)F)c3)ccc2O1)C(=O)O` [Compound 46R, (S)-3-((S)-6-(3-chloro-5-(difluoromethoxy)phenyl)-4-((3-(trifluoromethyl)phenyl)sulfonyl)-3,4-dihydro-2H-benzo[b][1,4]-oxazin-2-yl)-2-methylpropanoic acid]: < 0.5 µM and “*** (The symbol “***” indicates a value in the range of greater than 150 to 200)”.
Consider `O=C(O)[C@H]1C[C@H]([C@H]2CN(S(=O)(=O)c3cccc(C(F)(F)F)c3)c3cc(-c4cccc(C(F)(F)F)n4)ccc3O2)C1` [Compound 72, (1S,3r)-3-((S)-4-((3-(trifluoromethyl)phenyl)sulfonyl)-6-(6-(trifluoromethyl)pyridin-2-yl)-3,4-dihydro-2H-benzo[b][1,4]oxazin-2-yl)cyclobutane-1-carboxylic acid], for which the concentration for a half-maximal effect (EC50) is < 0.5 µM and the “TR-FRET Assay Max Response” value was “** (The symbol “**” indicates a value in the range of greater than 90 to 150)”.
With `O=C(O)CC[C@H]1CN(S(=O)(=O)c2cccc(C(F)(F)F)c2)c2cc(-c3ccc(F)cc3F)ccc2O1` [Compound 2D, (S)-3-(6-(2,4-difluorophenyl)-4-((3-(trifluoromethyl)phenyl)-sulfonyl)-3,4-dihydro-2H-benzo[b][1,4]oxazin-2-yl)propanoic acid], the EC50 is < 0.5 µM and the “TR-FRET Assay Max Response” value was “** (The symbol “**” indicates a value in the range of greater than 90 to 150)”.
The matching figures for `C[C@H](C[C@H]1CN(S(=O)(=O)c2cccc(C(F)(F)F)c2)c2cc(-c3cc(F)cc(F)c3Cl)cc(F)c2O1)C(=O)O` [Compound 46H, (R)-3-((S)-6-(2-chloro-3,5-difluorophenyl)-8-fluoro-4-((3-(trifluoromethyl)phenyl)sulfonyl)-3,4-dihydro-2H-benzo[b][1,4]-oxazin-2-yl)-2-methylpropanoic acid]: < 0.5 µM and “*** (The symbol “***” indicates a value in the range of greater than 150 to 200)”.
Regarding `C[C@@H](C[C@H]1CN(S(=O)(=O)c2cccc(C(F)(F)F)c2)c2cc(-c3cccc(C(F)(F)F)c3)ccc2O1)C(=O)O` [Compound 46L, (S)-2-methyl-3-((S)-6-(3-(trifluoromethyl)phenyl)-4-((3-(trifluoromethyl)phenyl)sulfonyl)-3,4-dihydro-2H-benzo[b][1,4]-oxazin-2-yl)propanoic acid], the EC50 was < 0.5 µM.
As for `C[C@@H](C[C@H]1CN(S(=O)(=O)c2cccc(C(F)(F)F)c2)c2cc(-c3cc(F)cc(OC(F)F)c3)ccc2O1)C(=O)O` [Compound 46P, (S)-3-((S)-6-(3-(difluoro-methoxy)-5-fluorophenyl)-4-((3-(trifluoromethyl)phenyl)sulfonyl)-3,4-dihydro-2H-benzo[b][1,4]-oxazin-2-yl)-2-methylpropanoic acid], the EC50 is < 0.5 µM and the “TR-FRET Assay Max Response” value is “*** (The symbol “***” indicates a value in the range of greater than 150 to 200)”.
On to `O=C(O)C1(C[C@@H]2CN(S(=O)(=O)c3cccc(C(F)(F)F)c3)c3cc(-c4cc(F)cc(F)c4)ccc3O2)CCC1` [Compound 32AP, (R)-1-((6-(3,5-difluorophenyl)-4-((3-(trifluoromethyl)phenyl)-sulfonyl)-3,4-dihydro-2H-benzo[b][1,4]oxazin-2-yl)methyl)cyclobutane-1-carboxylic acid], for which the EC50 is < 0.5 µM and the “TR-FRET Assay Max Response” value is “** (The symbol “**” indicates a value in the range of greater than 90 to 150)”.
The matching figures for `O=C(NC[C@H]1CN(S(=O)(=O)c2cccc(C(F)(F)F)c2)c2cc(-c3cccc(F)c3Cl)ccc2O1)C1(F)CC1` [Compound 30BM, (S)-N-((6-(2-chloro-3-fluoro-phenyl)-4-((3-(trifluoromethyl)-phenyl)sulfonyl)-3,4-dihydro-2H-benzo[b][1,4]oxazin-2-yl)methyl)-1-fluorocyclo-propane-1-carboxamide]: < 0.5 µM and “*** (The symbol “***” indicates a value in the range of greater than 150 to 200)”.
For the compound `CC(C)(C(=O)NC[C@H]1CN(S(=O)(=O)c2cccc(C(F)(F)F)c2)c2cc(-c3cc(F)cc(OC(F)F)c3)ccc2O1)C(F)(F)F` [Compound 30CY, (S)-N-((6-(3-(difluoromethoxy)-5-fluorophenyl)-4-((3-(trifluoro-methyl)phenyl)sulfonyl)-3,4-dihydro-2H-benzo[b][1,4]-oxazin-2-yl)methyl)-3,3,3-trifluoro-2,2-dimethyl-propanamide], the EC50 is < 0.5 µM and the “TR-FRET Assay Max Response” value is given as “** (The symbol “**” indicates a value in the range of greater than 90 to 150)”.
